Measured values: BigSolDB 2.1

For `CC(C)OC(=O)[C@H](C)N[P@](=O)(Oc1ccccc1)Oc1c(F)c(F)c(F)c(F)c1F`, the solubility (mole fraction) (in acetone, 278.15 K) was 0.00921, the solubility (mole fraction) (in acetone, 283.15 K) was 0.0111 and the solubility (mole fraction) (in acetone, 288.15 K) was 0.0132. The solubility (mole fraction) (in acetone, 293.15 K) was 0.0159, the solubility (mole fraction) (in acetone, 298.15 K) was 0.019 and the solubility (mole fraction) (in acetone, 303.15 K) was 0.0226. The solubility (mole fraction) (in acetone, 308.15 K) was 0.0268, the solubility (mole fraction) (in acetone, 313.15 K) was 0.0315 and the solubility (mole fraction) (in acetone, 318.15 K) was 0.0371. The solubility (mole fraction) (in acetonitrile, 278.15 K) was 0.00297, the solubility (mole fraction) (in acetonitrile, 283.15 K) was 0.0036 and the solubility (mole fraction) (in acetonitrile, 288.15 K) was 0.00439. The solubility (mole fraction) (in acetonitrile, 293.15 K) was 0.00538, the solubility (mole fraction) (in acetonitrile, 298.15 K) was 0.00653 and the solubility (mole fraction) (in acetonitrile, 303.15 K) was 0.00787. The solubility (mole fraction) (in acetonitrile, 308.15 K) was 0.00941, the solubility (mole fraction) (in acetonitrile, 313.15 K) was 0.0113 and the solubility (mole fraction) (in acetonitrile, 318.15 K) was 0.0133. For the same molecule, the solubility (mole fraction) (in ethanol, 278.15 K) was 0.0019, the solubility (mole fraction) (in ethanol, 283.15 K) was 0.00234 and the solubility (mole fraction) (in ethanol, 288.15 K) was 0.00293. It also gave a solubility (mole fraction) (in ethanol, 293.15 K) of 0.00366, a solubility (mole fraction) (in ethanol, 298.15 K) of 0.00451 and a solubility (mole fraction) (in ethanol, 303.15 K) of 0.00556. For the same molecule, the solubility (mole fraction) (in ethanol, 308.15 K) was 0.00686, the solubility (mole fraction) (in ethanol, 313.15 K) was 0.00836 and the solubility (mole fraction) (in ethanol, 318.15 K) was 0.0101. For the same molecule, the solubility (mole fraction) (in ethyl acetate, 278.15 K) was 0.0073, the solubility (mole fraction) (in ethyl acetate, 283.15 K) was 0.00889 and the solubility (mole fraction) (in ethyl acetate, 288.15 K) was 0.0108. The solubility (mole fraction) (in ethyl acetate, 293.15 K) was 0.0132, the solubility (mole fraction) (in ethyl acetate, 298.15 K) was 0.0157 and the solubility (mole fraction) (in ethyl acetate, 303.15 K) was 0.0191. For the same molecule, the solubility (mole fraction) (in ethyl acetate, 308.15 K) was 0.0227, the solubility (mole fraction) (in ethyl acetate, 313.15 K) was 0.0269 and the solubility (mole fraction) (in ethyl acetate, 318.15 K) was 0.032. The solubility (mole fraction) (in isopropanol, 278.15 K) was 0.00118, the solubility (mole fraction) (in isopropanol, 283.15 K) was 0.00156 and the solubility (mole fraction) (in isopropanol, 288.15 K) was 0.00204. The solubility (mole fraction) (in isopropanol, 293.15 K) was 0.00265, the solubility (mole fraction) (in isopropanol, 298.15 K) was 0.00343 and the solubility (mole fraction) (in isopropanol, 303.15 K) was 0.00431. It also gave a solubility (mole fraction) (in isopropanol, 308.15 K) of 0.00545, a solubility (mole fraction) (in isopropanol, 313.15 K) of 0.00692 and a solubility (mole fraction) (in isopropanol, 318.15 K) of 0.00875. For the same molecule, the solubility (mole fraction) (in methanol, 278.15 K) was 0.0023, the solubility (mole fraction) (in methanol, 283.15 K) was 0.0028 and the solubility (mole fraction) (in methanol, 288.15 K) was 0.00347. The solubility (mole fraction) (in methanol, 293.15 K) was 0.00423, the solubility (mole fraction) (in methanol, 298.15 K) was 0.00519 and the solubility (mole fraction) (in methanol, 303.15 K) was 0.00632. It also gave a solubility (mole fraction) (in methanol, 308.15 K) of 0.00766, a solubility (mole fraction) (in methanol, 313.15 K) of 0.00927 and a solubility (mole fraction) (in methanol, 318.15 K) of 0.0111. The solubility (mole fraction) (in n-butanol, 278.15 K) was 0.000812, the solubility (mole fraction) (in n-butanol, 283.15 K) was 0.0011 and the solubility (mole fraction) (in n-butanol, 288.15 K) was 0.00152. The solubility (mole fraction) (in n-butanol, 293.15 K) was 0.00198, the solubility (mole fraction) (in n-butanol, 298.15 K) was 0.00267 and the solubility (mole fraction) (in n-butanol, 303.15 K) was 0.00348. The solubility (mole fraction) (in n-butanol, 308.15 K) was 0.00463, the solubility (mole fraction) (in n-butanol, 313.15 K) was 0.00609 and the solubility (mole fraction) (in n-butanol, 318.15 K) was 0.00789. For the same molecule, the solubility (mole fraction) (in n-propanol, 278.15 K) was 0.00144, the solubility (mole fraction) (in n-propanol, 283.15 K) was 0.00191 and the solubility (mole fraction) (in n-propanol, 288.15 K) was 0.00246. The solubility (mole fraction) (in n-propanol, 293.15 K) was 0.00311, the solubility (mole fraction) (in n-propanol, 298.15 K) was 0.0039 and the solubility (mole fraction) (in n-propanol, 303.15 K) was 0.0049. It also gave a solubility (mole fraction) (in n-propanol, 308.15 K) of 0.00608, a solubility (mole fraction) (in n-propanol, 313.15 K) of 0.00748 and a solubility (mole fraction) (in n-propanol, 318.15 K) of 0.00927. It also gave a solubility (mole fraction) (in toluene, 278.15 K) of 0.00381, a solubility (mole fraction) (in toluene, 283.15 K) of 0.00469 and a solubility (mole fraction) (in toluene, 288.15 K) of 0.00572. It also gave a solubility (mole fraction) (in toluene, 293.15 K) of 0.00696, a solubility (mole fraction) (in toluene, 298.15 K) of 0.00848 and a solubility (mole fraction) (in toluene, 303.15 K) of 0.0103. The solubility (mole fraction) (in toluene, 308.15 K) was 0.0125, the solubility (mole fraction) (in toluene, 313.15 K) was 0.0151 and the solubility (mole fraction) (in toluene, 318.15 K) was 0.0181. For the same molecule, the solubility (mole fraction) (in water, 278.15 K) was 2.39e-05, the solubility (mole fraction) (in water, 283.15 K) was 3.23e-05 and the solubility (mole fraction) (in water, 288.15 K) was 4.42e-05. It also gave a solubility (mole fraction) (in water, 293.15 K) of 6.06e-05, a solubility (mole fraction) (in water, 298.15 K) of 7.96e-05 and a solubility (mole fraction) (in water, 303.15 K) of 0.000106. The solubility (mole fraction) (in water, 308.15 K) was 0.000137, the solubility (mole fraction) (in water, 313.15 K) was 0.000182 and the solubility (mole fraction) (in water, 318.15 K) was 0.000235.
